≈ marks a conversion by molar mass, not a printed value. Like-named read-outs stand apart in the source and are kept apart here. Marks after values point to notes of the source that are not given here.
What was measured:
MRSA = assay: Broth microdilution MIC, MRSA; format: cell-based, methicillin-resistant Staphylococcus aureus; set-up: key: R: Resistant
Experimental: (§1) The antimicrobial activity of the (AJ) EO used in this study was estimated using the broth microdilution method. The (AJ) EO was dissolved in DMSO to a concentration of 200 µg/mL. The produced solution was serially micro-diluted (2-fold) 10 times in sterile Mueller–Hinton broth (Thermo Fisher Scientific, Waltham, MA, USA). The dilution processes were performed under aseptic conditions in 96-well plates. In the micro-wells that were assigned to evaluate the antibacterial activity of (AJ) EO, micro-well number 11 contained plant-free Mueller–Hinton broth, which was used as a positive control for microbial growth. Micro-well number 12 contained plant-free and microbial-free Mueller–Hinton broth, which was used as a negative control for microbial growth. Micro-wells numbered 1–11 were inoculated aseptically with the test microbes. The (AJ) EO antimicrobial activity was determined in triplicate. All the inoculated plates were incubated at 35 °C. Regarding C. albicans, the same method was used but using RPMI media (Thermo Fisher Scientific, Waltham, MA, USA) instead of Mueller–Hinton broth. The incubation period lasted for about 18–24 h for those plates inoculated with the test bacterial strains and for about 48 h for those plates inoculated with C. albicans.

K. pneumoniae = assay: Broth microdilution MIC, K. pneumoniae; format: cell-based, Klebsiella pneumonia (ATCC 13883); settings: Klebsiella pneumoniae
Experimental: as §1

P. vulgaris = assay: Broth microdilution MIC, P. vulgaris; format: cell-based, Proteus vulgaris (ATCC 8427)
Experimental: as §1, with “The antibacterial effect of (AJ) EO was determined utilizing several strains of bacteria, which were obtained from the American Type Culture Collection (ATCC): Pseudomonas aeruginosa (ATCC 9027), Escherichia coli (ATCC 25922), Klebsiella pneumonia (ATCC 13883), Proteus vulgaris (ATCC 8427), and Staphylococcus aureus (ATCC 25923), and from a diagnostically confirmed methicillin-resistant Staphylococcus aureus (MRSA). The antifungal activity of (AJ) EO was evaluated against the growth of Candida albicans (ATCC 90028). The antimicrobial” for “The antimicrobial”, “C. albicans. […]” for “C. albicans.”

P. aeruginosa = assay: Broth microdilution MIC, P. aeruginosa; format: cell-based, Pseudomonas aeruginosa (ATCC 9027); set-up: key: R: Resistant
Experimental: The antibacterial effect of (AJ) EO was determined utilizing several strains of bacteria, which were obtained from the American Type Culture Collection (ATCC): Pseudomonas aeruginosa (ATCC 9027), Escherichia coli (ATCC 25922), Klebsiella pneumonia (ATCC 13883), Proteus vulgaris (ATCC 8427), and Staphylococcus aureus (ATCC 25923), and from a diagnostically confirmed methicillin-resistant Staphylococcus aureus (MRSA). The antifungal activity of (AJ) EO was evaluated against the growth of Candida albicans (ATCC 90028). The antimicrobial activity of the (AJ) EO used in this study was estimated using the broth microdilution method. The (AJ) EO was dissolved in DMSO to a concentration of 200 µg/mL. The produced solution was serially micro-diluted (2-fold) 10 times in sterile Mueller–Hinton broth (Thermo Fisher Scientific, Waltham, MA, USA). The dilution processes were performed under aseptic conditions in 96-well plates. In the micro-wells that were assigned to evaluate the antibacterial activity of (AJ) EO, micro-well number 11 contained plant-free Mueller–Hinton broth, which was used as a positive control for microbial growth. Micro-well number 12 contained plant-free and microbial-free Mueller–Hinton broth, which was used as a negative control for microbial growth. […] The (AJ) EO antimicrobial activity was determined in triplicate. […]

bovine COX-1 = target: T1, bovine COX-1 (Ovis aries, UniProt P05979); assay: COX inhibitor screening assay kit, COX-1; format: biochemical; settings: calculated from two concentrations (350 and 50 µg/mL); read-out: IC50 COX-1
T1 construct: purchased Cayman Chemical 560131
T1 sequence (P05979 25-600): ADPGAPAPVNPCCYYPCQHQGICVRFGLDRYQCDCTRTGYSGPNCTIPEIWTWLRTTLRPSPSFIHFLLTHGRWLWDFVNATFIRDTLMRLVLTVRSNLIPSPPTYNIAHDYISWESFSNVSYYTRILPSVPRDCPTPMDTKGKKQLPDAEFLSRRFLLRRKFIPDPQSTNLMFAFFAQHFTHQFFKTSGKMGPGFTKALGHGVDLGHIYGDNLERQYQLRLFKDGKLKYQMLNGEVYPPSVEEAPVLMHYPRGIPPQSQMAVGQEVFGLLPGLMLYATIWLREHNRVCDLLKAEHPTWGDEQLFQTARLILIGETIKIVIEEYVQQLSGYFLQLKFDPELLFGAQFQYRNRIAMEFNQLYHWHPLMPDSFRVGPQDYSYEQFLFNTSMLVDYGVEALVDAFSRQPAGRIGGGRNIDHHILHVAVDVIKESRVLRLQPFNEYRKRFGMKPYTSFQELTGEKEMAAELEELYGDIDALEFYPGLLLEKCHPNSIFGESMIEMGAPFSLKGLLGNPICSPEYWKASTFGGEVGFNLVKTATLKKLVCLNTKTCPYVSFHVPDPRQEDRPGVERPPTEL
Experimental: The ability of the (AJ) EO to prevent the conversion of arachidonic acid to PGH2 by bovine COX-1 and human recombinant COX-2 was assessed using a COX inhibitor screening assay kit (Item No: 560131, Cayman Chemical, Ann Arbor, MI, USA) according to manufacturer’s guidelines. The 50% inhibitory concentration (IC50) of COX-1/COX-2 activity of the tested samples was determined, with the assay run, in duplicate, with two concentrations (350 and 50 µg/mL). A standard curve of eight concentrations of prostaglandin, a non-specific binding sample, and a maximum binding sample was used, as instructed in the kit manual, to determine the inhibition of the sample plant, applying the generated multiple regression best-fit line. The percentage inhibition of the two concentrations was used to calculate the IC50 [69, 70].

human recombinant COX-2 = target: T2, human recombinant COX-2 (Homo sapiens, UniProt P35354); assay: COX inhibitor screening assay kit, COX-2; format: biochemical; settings: calculated from two concentrations (350 and 50 µg/mL); read-out: IC50 COX-2
T2 construct: purchased Cayman Chemical 560131
T2 sequence (P35354 18-604): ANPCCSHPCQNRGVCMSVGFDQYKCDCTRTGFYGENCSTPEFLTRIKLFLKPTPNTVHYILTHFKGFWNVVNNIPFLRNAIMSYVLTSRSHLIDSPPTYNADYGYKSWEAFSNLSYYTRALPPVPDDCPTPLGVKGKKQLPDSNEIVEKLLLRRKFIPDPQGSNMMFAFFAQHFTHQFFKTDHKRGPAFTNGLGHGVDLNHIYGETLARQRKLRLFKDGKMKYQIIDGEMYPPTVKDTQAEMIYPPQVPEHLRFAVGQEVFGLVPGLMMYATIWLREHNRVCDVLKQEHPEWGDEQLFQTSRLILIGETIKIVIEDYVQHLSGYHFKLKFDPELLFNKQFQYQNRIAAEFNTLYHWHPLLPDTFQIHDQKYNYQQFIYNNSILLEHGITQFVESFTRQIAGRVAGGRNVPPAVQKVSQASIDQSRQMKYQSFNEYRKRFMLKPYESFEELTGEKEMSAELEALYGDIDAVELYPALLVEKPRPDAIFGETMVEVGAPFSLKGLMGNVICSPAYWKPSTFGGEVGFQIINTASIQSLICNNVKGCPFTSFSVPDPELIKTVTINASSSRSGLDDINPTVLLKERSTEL
Excerpt: The percentage inhibition of the two concentrations was used to calculate the IC50 [69, 70].

[1] = DPPH free radical scavenging assay; settings: 30 min, 517 nm
Experimental: One hundred mg of (AJ) EO was dissolved in 100 mL of methanol to create the stock solution (1 mg/mL). The obtained solution was mixed with methanol to obtain different concentrations (2, 3, 5, 7, 10, 20, 30, 40, 50, 80, and 100 μg/mL). One milliliter of stock solution and 1 mL of methanol were mixed with 1 mL of DPPH (Sigma-Aldrich, Steinheim, Germany). Then, the solution was kept in the dark at room temperature for 30 min. However, by replacing the plant EO solution with methanol, the blank solution was prepared. Trolox (Sigma-Aldrich, St. Louis, MO, USA) was utilized as a positive control, and the absorbance for all obtained samples was measured by spectrophotometer (Shimadzu-UV-1800, Kyoto, Japan) at 517 nm. The DPPH inhibitory potentials were estimated utilizing the following formula:I (%) = [ABSblank − ABStest]/[ABSblank]) × 100%(2) where I (%) is the percentage of DPPH inhibitory potentials.

Caco-2 = assay: MTS cytotoxicity assay, Caco-2; format: cell-based; settings: Homo sapiens, 24 h, read-out: IC50 against Caco-2
Experimental: (§2) The liver (Hep3B), breast (MCF-7), Human cervical (HeLa), and Colon (CACO-2) tumor cell lines were cultivated separately in RPMI-1640 media (Sigma, Norwich, UK), which was treated with 1% L-glutamine (Sigma, London, UK), 1% penicillin/streptomycin antibiotics (BI, New Delhi, India), and 10% fetal bovine serum. Cancer cells were grown at 37 °C in a humidified atmosphere with 5% CO2. Cells were seeded at 2.6 × 10^4 cells/well in a 96-well plate. […] Cell viability was evaluated by the CellTilter 96® Aqueous One Solution Cell Proliferation (MTS) Assay according to the manufacturer’s directions (Promega Corporation, Madison, WI, USA). At the end of the treatment, 20 μL of MTS solution per 100 μL of media was added to each well, and the solutions in the well plates were incubated at 37 °C for 2 h. The absorbance was measured at 490 nm.

HeLa = assay: MTS cytotoxicity assay, HeLa; format: cell-based; settings: Homo sapiens, 24 h, read-out: IC50 against HeLa
Experimental: as §2

HepG2 = assay: MTS cytotoxicity assay, HepG2; format: cell-based; settings: Homo sapiens, 24 h, text names Hep3B, read-out: IC50 against HepG2
[2] = Proteus vulgaris, read-out: MIC

CC1(C)S[C@@H]2[C@H](NC(=O)[C@H](N)c3ccccc3)C(=O)N2[C@H]1C(=O)O [Ampicillin, ampicillin]
MIC (MRSA): R | MIC (MRSA; listed as ampicillin): does not have antibacterial activity | MIC (K. pneumoniae): 1 µg/mL (≈ 2.86 µM) | MIC (P. vulgaris; [2]): 18 µg/mL (≈ 51.5 µM) | MIC (P. aeruginosa): R

O=C(O)c1cn(C2CC2)c2cc(N3CCNCC3)c(F)cc2c1=O [Ciprofloxacin, ciprofloxacin]
MIC (P. vulgaris): 15 µg/mL (≈ 45.3 µM) | MIC (P. vulgaris; [2]): 15 µg/mL (≈ 45.3 µM)

CC(C(=O)O)c1cccc(C(=O)c2ccccc2)c1 (stereo not shown) [Ketoprofen]
potency estimated from few doses (bovine COX-1): 7.89 ± 0.96 µg/mL (≈ 31 µM) | potency estimated from few doses (human recombinant COX-2): 40.2 ± 1.09 µg/mL (≈ 158 µM)

Cc1c(C)c2c(c(C)c1O)CCC(C)(C(=O)O)O2 (stereo not shown) [Trolox]
IC50 against DPPH [1]: 1.58 ± 1.49 ^a µg/mL

COc1cccc2c1C(=O)c1c(O)c3c(c(O)c1C2=O)C[C@@](O)(C(=O)CO)C[C@@H]3O[C@H]1C[C@H](N)[C@H](O)[C@H](C)O1 [doxorubicin]
IC50 (Caco-2): 0.37 ± 0.08 µg/mL (≈ 0.681 µM) | IC50 (HeLa): 0.84 ± 0.03 µg/mL (≈ 1.55 µM) | IC50 (HepG2): 1.21 ± 0.05 µg/mL (≈ 2.23 µM)
